This note sets out measurements from patent EP0273272B1, “Pharmaceutical compositions containing 17-benzyl sparteine derivatives with a positive inotropic effect” (Kali-Chemie Pharma GmbH, priority 1986, dated 1988).

For one series, the system named is Mäusen. The series is described as follows: Determination of the minimal toxic dose in mice. It is filed as in vivo. On the procedure: Männlichen Mäusen von 20-25 g Gewicht werden p.o. Maximaldosen von 300 mg/kg der Testsubstanz verabreicht. Die Tiere werden 3 Stunden lang sorgfältig auf Toxizitätssymptome beobachtet. über einen Zeitraum von 24 Stunden nach der Applikation werden zusätzlich alle Symptome und Todesfälle registriert. Begleitsymptome werden ebenfalls beobachtet und registriert. Wenn Tod oder starke toxische Symptome beobachtet werden, werden weiteren Mäusen zunehmend geringere Dosen verabreicht, bis keine toxischen Symptome mehr auftreten. Die niedrigste Dosis, welche Tod oder starke toxische Symptome hervorruft, wird als minimale toxische Dosis in der nachfolgenden Tabelle 2 angegeben. Tabelle 2

The subject of a further series is linken Herzvorhofes. Briefly: Functional refractory period of the isolated left atrium, paired electrical stimulation (antiarrhythmic effect). The following applies: 0.3 h, concentration prolonging the functional refractory period to 125 % 18 min after application, guinea pig, read-out: Effektive Konzentration zur Erreichung von FRP 125 %. Further details: species or system Meerschweinchen. An excerpt:
Der Nachweis der antiarrhythmischen Wirkung der Wirksubstanzen erfolgte experimentell durch Bestimmung der funktionellen Refraktärzeit des linken Herzvorhofes von weiblichen Albino Pirbright-white Meerschweinchen der Gewichtsklasse 300 bis 400 g mit Hilfe der gepaarten elektrischen Stimulation in Anlehnung an die Methode von Govier (W.C. Govier, J. Pharmacol. Exp. Ther. 148 (1) (1965), 100 bis 105). In der nachfolgenden Tabelle 3 ist als FRP 125 % diejenige Konzentration in µmol/l angegeben, bei der es 18 min nach Substanzapplikation zu einer Verlängerung der funktionellen Refraktärzeit auf 125 % kommt.

In series [1] the test system is spontan schlagenden, isolierten rechten Vorhöfen. The series is described as follows: Heart rate of spontaneously beating isolated right atria. Set-up: species or system Meerschweinchen. Conditions: 20 min, concentration lowering the rate to 75 % of the initial value 20 min after application, guinea pig, read-out: Effektive Konzentration zur Erreichung von FRQ 75 %. As for the experimental part: Der direkte Einfluß der Wirksubstanz auf die Herzfrequenz (FRQ) wurde an spontan schlagenden, isolierten rechten Vorhöfen von weiblichen Albino Pirbright-white Meerschweinchen der Gewichtsklasse von 300 bis 400 g geprüft. In Tabelle 3 ist als FRQ 75 % diejenige Konzentration in µmol/l angegeben, bei der es 20 min nach der Substanzgabe zu einer Abnahme der Frequenz auf 75 % des Ausgangwertes kommt. Tabelle 3

In another series the test system is narkotisierten Ratten. The series is described as follows: Myocardial oxygen consumption (double product, method of Neill) in anaesthetised rats. It counts as in vivo. The following applies: used as dihydrochloride; for DP: double product (systolic pressure x heart rate); for FRQ: heart rate; for P₅: systolic blood pressure. The text has this:
Die Wirkung der Substanzen auf Blutdruck und Herzfrequenz bei i.v.-Dauerinfusion in narkotisierten Ratten wird nach der Methode von Buschmann et al. (J. Cardiovascular Pharmacol. 2 777-781 (1980)) bestimmt.
Männliche Wistar-Ratten (330-370 g Körpergewicht) werden durch i.p.-Applikation von 1,25 g/kg Urethan narkotisiert und tracheotomiert. Nach einer Äquilibrierungsphase von 10 Minuten wird mit den Messungen begonnen. In einer Vorlaufphase von 5 Minuten werden die Ausgangswerte gemessen. Anschließend werden die Prüfsubstanzen gelöst in isotonischer Natriumschloridlösung (gegebenenfalls mit Zusatz eines Lösungsvermittlers) als Dauerinfusion i.v. appliziert, beginnend mit einer Dosis vom 0,01 µmol/kg/min. Die Dosis wird alle 10 Minuten ohne Erhöhung des Infusionsvolumens auf das 10-fache gesteigert. Eine Kontrollgruppe erhält nur wirkstofffreie Lösung appliziert.
In dem gleichen Versuchsmodell wurde auch der Einfluß der Wirksubstanzen auf den myokardialen Sauerstoffverbrauch an narkotisierten Ratten untersucht und anhand der Methode von Neill (Neill, W.Z., H.H. Levine, R.J. Wagman, R. Gorlin, Circulation Research 12 (1963), 163) berechnet. Dazu wird das Produkt aus systolischem Blutdruck und Herzfrequenz (= Doppelprodukt mm Hg x min⁻¹ x 0,01) berechnet. Wie aus der nachstehenden Tabelle 1A ersichtlich ist, reduzieren die Wirksubstanzen dieses Doppelprodukt und führen damit zu einer Sauerstoffeinsparung am Herzen. Tabelle 1A

[2] abbreviates: mouse, in vivo, po, 300 mg/kg, 1440 min.
Setting [3] is: anaesthetised rats, 6,6 µmol/kg i.v.
[4] abbreviates: anaesthetised rats, 2,6 µmol/kg i.v.

The structures appear in SMILES notation. Some results are limits rather than exact numbers.

With `Cc1cccc(CC2C3CC(CN4CCCCC34)C3CCCCN32)c1` (centres unmarked) [Beispiel 518], in the series on Mäusen (setting [2]), the “Minimale toxische Dosis” value is reported as >300 mg/kg. Besides, the EC (FRP 125%) with linken Herzvorhofes worked out at 2.58 µM. The EC (FRQ 75%) in series [1] worked out at 3.13 µM.

As for `c1ccc(CC2C3CC(CN4CCCCC34)C3CCCCN32)cc1` (centres unmarked) [Beispiel 500, 17-Benzylspartein], the “Minimale toxische Dosis” value in the series with Mäusen (p.o., male mice, maximal dose 300 mg/kg, observed 24 h, lowest dose causing death or strong toxic symptoms) is listed as >300 mg/kg. In addition, the EC (FRP 125%) with linken Herzvorhofes is 3.52 µM. The EC (FRQ 75%) in series [1] was 1.46 µM.

Take `Fc1ccccc1CC1C2CC(CN3CCCCC23)C2CCCCN21` (centres unmarked) [Beispiel 509]: the “Minimale toxische Dosis” value in the series with Mäusen (setting [2]) is listed as >300 mg/kg. For the same compound, the EC (FRP 125%) in the series on linken Herzvorhofes is 2.83 µM. For the same compound, the EC (FRQ 75%) in series [1] was determined as 4.09 µM.

Take `COc1ccccc1CC1C2CC(CN3CCCCC23)C2CCCCN21` (centres unmarked) [Beispiel 501]: in the series with Mäusen (setting [2]), the “Minimale toxische Dosis” value stood at 300 mg/kg. The EC (FRP 125%) in the series with linken Herzvorhofes is 3.71 µM. Also, the EC (FRQ 75%) in series [1] is 4.69 µM.

For the compound `Cc1ccc(CC2C3CC(CN4CCCCC34)C3CCCCN32)cc1` (centres unmarked) [Beispiel 519], the “Minimale toxische Dosis” value in the series on Mäusen (setting [2]) was 300 mg/kg. The EC (FRP 125%) with linken Herzvorhofes was found to be 3.24 µM. The EC (FRQ 75%) in series [1] came out at 1.9 µM.

Consider `COc1cccc(CC2C3CC(CN4CCCCC34)C3CCCCN32)c1` (centres unmarked) [Beispiel 502, 17-(3-Methoxybenzyl)-spartein], for which the “Änderung DP” value in the series on narkotisierten Ratten (change of double product versus pre-dose values, 6,6 µmol/kg i.v.) is on record as -29 Prozent. In the series with narkotisierten Ratten (setting [3]), this compound returned a DP of 312 mm Hg/ min x 100, an FRQ of 254 min⁻¹ and a P₅ of 124 mm Hg. Further, the “Minimale toxische Dosis” value in the series with Mäusen (setting [2]) came out at 300 mg/kg. Further, in the series on linken Herzvorhofes, the EC (FRP 125%) worked out at 6.24 µM. The EC (FRQ 75%) in series [1] came out at 2.06 µM.

As to `Fc1ccc(CC2C3CC(CN4CCCCC34)C3CCCCN32)cc1` (centres unmarked) [Beispiel 511], the “Minimale toxische Dosis” value in the series with Mäusen (setting [2]) is listed as >300 mg/kg. The EC (FRP 125%) in the series on linken Herzvorhofes turned out to be 2.47 µM. For the same compound, in series [1], the EC (FRQ 75%) stood at 5.12 µM.

As for `COc1cccc(CC2C3CC(CN4CCCCC34)C3CCCCN32)c1OC` (centres unmarked) [Beispiel 6, 17-(2,3-Dimethoxybenzyl)-spartein], in the series with Mäusen (setting [2]), the “Minimale toxische Dosis” value is reported as >300 mg/kg. Further, the EC (FRP 125%) in the series on linken Herzvorhofes stood at 3.39 µM. In series [1], the EC (FRQ 75%) stood at 4.85 µM.

For `Cc1cccc(CC2C3CC(CN4CCCCC34)C3CCCCN32)c1F` (centres unmarked) [Beispiel 523], the “Minimale toxische Dosis” value in the series on Mäusen (setting [2]) came out at 300 mg/kg. In the series with linken Herzvorhofes, the EC (FRP 125%) was 2.69 µM. Also, in series [1], the EC (FRQ 75%) turned out to be 0.95 µM.

In the case of `Clc1ccccc1CC1C2CC(CN3CCCCC23)C2CCCCN21` (centres unmarked) [Beispiel 505], the “Änderung DP” value in the series on narkotisierten Ratten (change of double product versus pre-dose values, 2,6 µmol/kg i.v.) is -26 Prozent. Further, in the series with narkotisierten Ratten (setting [4]), the DP is listed as 376 mm Hg/ min x 100, the FRQ was 306 min⁻¹ and the P₅ was 121 mm Hg. The “Minimale toxische Dosis” value with Mäusen (setting [2]) was determined as 300 mg/kg. In the series with linken Herzvorhofes, the EC (FRP 125%) worked out at 2.17 µM. Also, the EC (FRQ 75%) in series [1] stood at 0.99 µM.
